Experimental data reported in ChEMBL document CHEMBL1126468, “Antineoplastic bicyclicsulfonylureas” (Bioorg Med Chem Lett, 1992).

Key:
Type in all cases: functional
[1] = Inhibition of tumor growth in 6C3HED lymphosarcoma inoculated mice following 150 mg/kg p.o. o.d.; details: Mus musculus, route oral
Mus musculus [2] = assay: Percent inhibition is the ratio of tumor weight of treated animals at a dose 80 mg/kg given daily to 8 mice perorally versus the untreated control mice infected with 6C3HED lymphosarcoma; details: route oral
Mus musculus [3] = assay: Percent inhibition is the ratio of tumor weight of treated animals at a dose 160 mg/kg given daily to 8 mice perorally versus the untreated control mice infected with 6C3HED lymphosarcoma; details: route oral

Row | Compound | inhibition in vivo at 150 mg/kg [1] [%] | also measured
1 | O=C(Nc1ccc(Cl)cc1)NS(=O)(=O)c1ccc2cc[nH]c2c1 | 37 | –
2 | O=C(Nc1ccc(Cl)cc1)NS(=O)(=O)c1ccc2occc2c1 | 100 | –
3 | Cc1ccc2sc(S(=O)(=O)NC(=O)Nc3ccc(Cl)cc3)cc2c1 | 10 | –
4 | COc1cc(S(=O)(=O)NC(=O)Nc2ccc(Cl)cc2)cc2ccoc12 | 51 | –
5 | Cc1ccc(NC(=O)NS(=O)(=O)c2ccc3occc3c2)cc1 | 84 | –
6 | Cc1cccc2cc(S(=O)(=O)NC(=O)Nc3ccc(Cl)cc3)oc12 | 21 | –
7 | O=C(Nc1ccc(Cl)cc1)NS(=O)(=O)c1cccc2occc12 | 84 | –
8 | O=C(Nc1ccc(Cl)cc1)NS(=O)(=O)c1cc2ccccc2[nH]1 | 26 | –
9 | O=C(Nc1ccc(Cl)cc1)NS(=O)(=O)c1csc2ccccc12 | 43 | –
10 | O=C(Nc1ccc(Cl)cc1)NS(=O)(=O)c1cc2cc(Cl)ccc2o1 | 40 | –
11 | Cc1ccc2oc(S(=O)(=O)NC(=O)Nc3ccc(Cl)cc3)cc2c1 | 6 | –
12 | O=C(Nc1ccc(Cl)cc1)NS(=O)(=O)c1ccc2sccc2c1 | – | inhibition in vivo at 80 mg/kg (Mus musculus [2]): 44%
13 | Cc1cc2cc(S(=O)(=O)NC(=O)Nc3ccc(Cl)cc3)ccc2o1 | 57 | –
14 | Cc1ccc(NC(=O)NS(=O)(=O)c2cc3ccccc3o2)cc1 | 11 | –
15 | O=C(Nc1ccc(Cl)cc1)NS(=O)(=O)c1cc2ccccc2o1 | 84 | –
16 | O=C(Nc1ccc(Br)cc1)NS(=O)(=O)c1cc2ccccc2o1 | 48 | –
17 | O=C(Nc1ccc(Cl)cc1)NS(=O)(=O)c1ccc2ccoc2c1 | – | inhibition in vivo at 160 mg/kg (Mus musculus [3]): 100%
18 | O=C(Nc1ccc(Cl)c(Cl)c1)NS(=O)(=O)c1cc2ccccc2o1 | 28 | –
19 | COc1ccc2oc(S(=O)(=O)NC(=O)Nc3ccc(Cl)cc3)cc2c1 | 25 | –
20 | O=C(Nc1ccc(Cl)cc1)NS(=O)(=O)c1cc2cccc(Br)c2o1 | 18 | –
21 | Cc1coc2ccc(S(=O)(=O)NC(=O)Nc3ccc(Cl)cc3)cc12 | 44 | –
22 | Cc1cc(S(=O)(=O)NC(=O)Nc2ccc(Cl)cc2)cc2ccoc12 | 89 | –
23 | O=C(Nc1ccc(Cl)cc1)NS(=O)(=O)c1cc2ccccc2s1 | 47 | –
